{
  "source": "paper PMC6452685",
  "about": "“Lysyl-tRNA synthetase as a drug target in malaria and cryptosporidiosis” (Proceedings of the National Academy of Sciences of the …, 2019)",
  "key": {"Pf(NF54)": {"tested_on": "Pf(NF54)", "test": "Drug-sensitive P. falciparum NF54, [3H]-hypoxanthine incorporation", "format": "cell-based", "details": "Plasmodium falciparum, drug-sensitive strain", "excerpt": "3.2 Cytotoxicity Studies (Dundee)\nIn vi t ro cy totox i ci ty s tudies can be ca rri ed out us i ng Hep G 2 (Human C aucas i an hepatocy te ca rci noma, ECACC cat. no. 850 114 30) us ed as i ndi cators f or g eneral mammal i an cel l tox i ci ty . […]\n3.3 In vitro Cell Assay D ata Analysis (Du ndee) […]\nas 0%. Qual i ty control c ri teri a for passi ng pl ates were as fol l ow s : Z’ > 0.\n< 15 . T he f ormula used to calculate Z’ is 1- 3´ (St D e v _ hi gh + St D e v_ low) . […]\nAl l EC50 Curve fitti ng was undertaken usi ng XLFi t versi on 4.2 usi ng Model 205 wi th the foll owi ng 4 paramet ri c equat i on: A + (?-A) ,where A=% i nhi bi ti on at bo ttom, B=% i nhi bi ti on at top, C= EC , […]\nD= slope, x= inhibitor concentration a nd y= % inhibition. […]\nwas fixed to 100 only when at least 50% of inhibition was reached. […]\nHoffmann-La Ro che Ltd) a nd resi stant strai ns K1 and TM90C2B (fr om the Malaria Research an d Reference Reag ent Res ou rce C enter, accu rate d es cri pti ons of the g eneti c backg roun ds of thes e strains can be obtained at http://www.beiresources.org) were cultivated in a variation of the medium prev i ous l y des cri bed (5, 6), c onsi sti ng of RPMI 16 40 su ppl emented wi th 0.5% ALBUMAX® II, 25 m M Hepes , 25 mM NaHC O3 (pH 7. […] The re s ul t s were recorded and expressed as a percentage of the untreated controls. […]"}, "[1]": {"tested_on": "P. falciparum male/female gamete formation", "test": "P. falciparum male/female gamete formation", "format": "cell-based", "details": "Plasmodium falciparum", "description": "Thi s i s bas ed on methods previ ousl y reported (14). Mature P. falciparum stage V gametocytes (NF54)\nwere incubated with test compound for 24 h at 3 7°C i n 384-well plates containing complete culture\nmedi um (RPMI 1640, 25 mM HEPES, 2 g/l D-glucose, 2 g/l sodium bicarbonate, 50 mg/l\nGametogenesis was triggered by dis pens i ng 10 µl ookinete medium (RPMI 1640, 25 mM HEPES, 2 g/l\nD-glucose, 2 g/l sodium bicarbonate, 50 mg/l hy pox ant hi ne, 100 µM xanthurenic acid) also\ncontai ni ng 2. 7 µg/ml anti-Pfs25-Cy3 into each well and cooling the plate on a metal block at 4 °C fo r\n4 mi n. Fi fteen s l ater male gametogenesis was recorded by b ri ghtfi el d i magi ng usi ng ti m e s 6 object i v e\nand then the pl ate stored at 2 6 °C for a fu rther 24 h to allow female gametes to develop. Female\ngamete formation was assessed by fluorescence m icroscopy using x6 objective to identify anti-Pfs25-\ngentian violet negative and positive controls.\n3.1 3 Act iv it y a gains t Cry pt os pori diu m h omi nis (CALIBR)\nThi s i s bas ed on methods previ ousl y reported (10)."}, "CYP2D6": {"target": "T1, CYP2D6 (Homo sapiens, UniProt P10635)", "T1 construct": "purchased Cypex, Dundee, UK; host or cells: bacterial membranes (bactosomes)", "T1 sequence (P10635 whole entry)": "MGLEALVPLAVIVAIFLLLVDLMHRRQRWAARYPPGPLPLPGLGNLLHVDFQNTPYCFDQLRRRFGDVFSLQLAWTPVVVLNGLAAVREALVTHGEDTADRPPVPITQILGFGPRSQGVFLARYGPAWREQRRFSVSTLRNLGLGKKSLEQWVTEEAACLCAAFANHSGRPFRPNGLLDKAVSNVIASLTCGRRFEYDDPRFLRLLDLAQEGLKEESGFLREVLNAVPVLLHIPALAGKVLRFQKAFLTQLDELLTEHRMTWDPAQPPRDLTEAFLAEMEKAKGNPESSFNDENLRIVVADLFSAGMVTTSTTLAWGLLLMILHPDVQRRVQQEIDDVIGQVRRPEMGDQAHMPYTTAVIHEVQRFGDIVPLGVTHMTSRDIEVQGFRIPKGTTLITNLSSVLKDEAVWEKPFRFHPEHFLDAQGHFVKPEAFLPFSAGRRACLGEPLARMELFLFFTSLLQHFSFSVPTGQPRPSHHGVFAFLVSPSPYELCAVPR", "test": "Fluorescence-based CYP inhibition, CYP2D6", "format": "in vitro ADME", "method": "4.7 F lu or e s ce nce-based CYP I nhibition usin g recombinantly expressed CYP b actosomes Fl uorogeni c C YP i nhi bi t i on s t udi es w ere c ondu ct ed at 37 °C i n 96-well, flat-bot t om, cl ear p ol y s t y rene pl at es. I ncubat i on mi xt ures cont ai ni ng Eas y C YP bact os omes (1000 pmol /ml , 10 mg /ml C y pex TM, Dundee, UK), fl uorogeni c substrate (Cypex TM) and 50 mM potas s i um phosphat e buffer (p H 7. 4) w er e prepared at t he fol l ow i ng fi nal concent rat i ons : C YP1A2, 5 pmol /ml + 35 µ M et hox y res orufi n (ER) ; CYP2C9, 10 pm ol/ml + 30 µM 7-methoxy-4-(tri fl uo romethy l )-coumari n (MFC ); C YP 2C 19, 5 pm ol /ml + 25 µM 3-cy ano-7-eth oxycoumarin (CEC); C YP 2D 6, 10 pmol /ml + 6 µM 7-meth oxy-4-(ami nomethy l )- coumari n (MAMC ); C YP 3A4, 10 pmol /ml + 1 µM diethoxyfluorescein (DEF) and 10 pmol /ml + 15 µM 7-benz y l ox y qui nol i ne (BQ ). […] 0125 ( 1A2 and 2C 9 onl y ) o r 0. 025 mg /ml (al l ot her i s oforms ). […] Positive control inhibitor, miconazole, was prepared as a 500 µM s olution in DMSO and similarly diluted.\nFor eac h i sofo rm, 2 20 µl of i ncubati on mi x was added to each wel l of a 96-well, flat-bot t om, cl ear pol y s t y rene pl at e. Al i quot s (5 µl) of each compound 5 conce ntrati on was then mi x ed wi th 220 µl of the incubation mix and pre-incubated at 37 °C for 5 min (final test compound concentration range: […]"}, "[2]": {"target": "human ether-à-go-go related gene (hERG) K+ channel (Homo sapiens, UniProt Q12809)", "sequence (Q12809 whole entry)": "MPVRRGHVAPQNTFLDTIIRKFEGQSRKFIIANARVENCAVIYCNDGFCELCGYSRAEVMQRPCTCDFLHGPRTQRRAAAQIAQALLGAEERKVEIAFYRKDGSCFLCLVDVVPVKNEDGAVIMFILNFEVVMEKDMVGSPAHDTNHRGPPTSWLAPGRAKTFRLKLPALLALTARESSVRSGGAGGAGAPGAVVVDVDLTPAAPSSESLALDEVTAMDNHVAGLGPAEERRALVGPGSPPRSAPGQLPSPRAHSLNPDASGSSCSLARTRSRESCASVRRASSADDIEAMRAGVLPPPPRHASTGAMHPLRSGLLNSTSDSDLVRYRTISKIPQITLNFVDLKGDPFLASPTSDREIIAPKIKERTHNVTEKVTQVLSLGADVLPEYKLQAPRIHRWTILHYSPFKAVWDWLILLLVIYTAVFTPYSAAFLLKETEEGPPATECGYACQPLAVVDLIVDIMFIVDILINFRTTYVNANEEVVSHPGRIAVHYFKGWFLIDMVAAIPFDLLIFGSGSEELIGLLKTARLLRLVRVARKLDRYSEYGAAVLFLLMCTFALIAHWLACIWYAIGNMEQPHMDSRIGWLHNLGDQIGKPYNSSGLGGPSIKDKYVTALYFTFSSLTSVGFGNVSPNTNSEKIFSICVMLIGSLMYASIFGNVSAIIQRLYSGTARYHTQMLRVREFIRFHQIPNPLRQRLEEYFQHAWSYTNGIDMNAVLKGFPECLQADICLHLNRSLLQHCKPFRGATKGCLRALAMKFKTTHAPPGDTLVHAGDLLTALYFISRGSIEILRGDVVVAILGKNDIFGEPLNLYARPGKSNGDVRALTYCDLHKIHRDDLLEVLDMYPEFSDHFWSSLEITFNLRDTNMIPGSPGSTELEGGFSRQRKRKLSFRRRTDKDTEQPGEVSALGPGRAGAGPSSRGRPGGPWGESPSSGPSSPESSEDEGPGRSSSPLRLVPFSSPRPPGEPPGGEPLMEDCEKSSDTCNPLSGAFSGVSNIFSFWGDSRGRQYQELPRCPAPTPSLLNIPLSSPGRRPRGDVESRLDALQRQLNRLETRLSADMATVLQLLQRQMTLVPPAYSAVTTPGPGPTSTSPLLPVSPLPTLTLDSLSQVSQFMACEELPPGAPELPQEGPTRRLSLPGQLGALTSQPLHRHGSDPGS", "test": "hERG K+ channel assay (IonWorks patch clamp)", "format": "cell-based"}, "[3]": {"test": "Intrinsic clearance in human liver microsomes", "format": "in vitro ADME"}, "C. parvum Iowa strain": {"tested_on": "C. parvum Iowa strain", "test": "In vitro inhibition of Cryptosporidium, C. parvum Iowa in HCT-8 cells (imaging)", "format": "cell-based", "details": "HCT-8, read-out: C. parvum Iowa strain EC50"}},
  "data": [
    {"smiles": "O=C(NCC1(O)CCC(F)(F)CC1)c1cc(=O)c2cc(F)ccc2o1", "note": "[Compound 5]", "values": [
      {"measurement": "EC50", "setting": "Pf(NF54)", "result": 390, "unit": "nM"},
      {"measurement": "EC50", "setting": "[1]", "result": "> 1000", "unit": "nM"},
      {"measurement": "IC50", "setting": "CYP2D6", "result": "> 10000", "unit": "nM"},
      {"measurement": "EC50", "setting": "[2]", "result": "> 100000", "unit": "nM"},
      {"measurement": "Microsomal stability CLint", "setting": "[3]", "result": "< 0.5", "unit": "mL⋅min^−1⋅g^−1"},
      {"measurement": "EC50", "setting": "C. parvum Iowa strain", "result": 1300, "unit": "nM"}
    ]}
  ]
}
